# Test results as given in ChEMBL document CHEMBL1137683, “Synthesis and in vitro cysticidal activity of new benzimidazole derivatives” (Eur J Med Chem, 2009).
# Test system: not listed separately
# Assay: Octanol-water partition coefficient, log P of the compound
# Format: physicochemical
row,SMILES,logP
1,COC(=O)Nc1nc2cc(Cl)ccc2[nH]1,2.09
2,COC(=O)Nc1nc2cc(C(=O)OCc3ccc([N+](=O)[O-])cc3)ccc2[nH]1,3.12
3,CNC(=O)c1ccc2[nH]c(NC(=O)OC)nc2c1,0.68
4,COC(=O)Nc1nc2cc(C(=O)N3CCCCC3)ccc2[nH]1,1.65
5,CCC[S+]([O-])c1ccc2[nH]c(NC(=O)OC)nc2c1 (stereo not given) [ALBENDAZOLE OXIDE],1.54
6,COC(=O)Nc1nc2cc(Oc3cccc4ccccc34)c(Cl)cc2[nH]1,3.56

# Test system: Taenia crassiceps
# Assay: Antiparasitic activity against Taenia crassiceps cysts ORF strain assessed as cysts mortality at 0.28 uM after 11 days by Trypan blue exclusion test
# Format: functional
row,SMILES,Activity [%]
1,CSc1nc2cc(C(=O)N3CCCCC3)c(Cl)cc2[nH]1,0
2,COC(=O)Nc1nc2cc(Cl)ccc2[nH]1,15
3,CCCSc1ccc2c(c1)nc(NC(=O)OC)n2C,0
4,CCCSc1ccc2[nH]c(N(C)C(=O)OC)nc2c1,0
5,COC(=O)Nc1nc2cc(C(=O)OCc3ccc([N+](=O)[O-])cc3)ccc2[nH]1,41
6,CNC(=O)c1ccc2[nH]c(NC(=O)OC)nc2c1,0
7,CSc1nc2cc(C(=O)N3CCC(C)CC3)ccc2[nH]1,0
8,CSc1nc2cc(C(=O)N3CCN(C)CC3)ccc2[nH]1,0
9,CSc1nc2cc(C(=O)N3CCC(C)CC3)c(Cl)cc2[nH]1,0
10,CSc1nc2cc(C(=O)N3CCCCC3)ccc2[nH]1,0
11,COC(=O)Nc1nc2cc(C(=O)N3CCCCC3)ccc2[nH]1,37
12,CCCSc1ccc2nc(NC(=O)OC)n(C)c2c1,0
13,CCC[S+]([O-])c1ccc2[nH]c(NC(=O)OC)nc2c1 (stereo not given) [ALBENDAZOLE OXIDE],46

# Test system: Taenia crassiceps
# Assay: Antiparasitic activity against Taenia crassiceps cysts WFU strain assessed as cysts mortality at 1.70 uM after 11 days by Trypan blue exclusion test
# Format: functional
row,SMILES,Activity [%]
1,COC(=O)Nc1nc2cc(Cl)ccc2[nH]1,8
2,COC(=O)Nc1nc2cc(C(=O)OCc3ccc([N+](=O)[O-])cc3)ccc2[nH]1,26
3,COC(=O)Nc1nc2cc(C(=O)N3CCCCC3)ccc2[nH]1,16.7
4,CCC[S+]([O-])c1ccc2[nH]c(NC(=O)OC)nc2c1 (stereo not given) [ALBENDAZOLE OXIDE],35

# Test system: Taenia crassiceps
# Assay: Antiparasitic activity against Taenia crassiceps cysts WFU strain assessed as cysts mortality at 0.28 uM after 11 days by Trypan blue exclusion test
# Format: functional
row,SMILES,Activity [%]
1,COC(=O)Nc1nc2cc(Cl)ccc2[nH]1,5
2,COC(=O)Nc1nc2cc(C(=O)OCc3ccc([N+](=O)[O-])cc3)ccc2[nH]1,22.6
3,COC(=O)Nc1nc2cc(C(=O)N3CCCCC3)ccc2[nH]1,9.3
4,CCC[S+]([O-])c1ccc2[nH]c(NC(=O)OC)nc2c1 (stereo not given) [ALBENDAZOLE OXIDE],25

# Test system: Taenia crassiceps
# Assay: Antiparasitic activity against Taenia crassiceps cysts ORF strain assessed as cysts mortality at 1.70 uM after 11 days by Trypan blue exclusion test
# Format: functional
row,SMILES,Activity [%]
1,CSc1nc2cc(C(=O)N3CCCCC3)c(Cl)cc2[nH]1,0
2,COC(=O)Nc1nc2cc(Cl)ccc2[nH]1,23
3,CCCSc1ccc2c(c1)nc(NC(=O)OC)n2C,0
4,CCCSc1ccc2[nH]c(N(C)C(=O)OC)nc2c1,0
5,COC(=O)Nc1nc2cc(C(=O)OCc3ccc([N+](=O)[O-])cc3)ccc2[nH]1,68
6,CNC(=O)c1ccc2[nH]c(NC(=O)OC)nc2c1,0
7,CSc1nc2cc(C(=O)N3CCC(C)CC3)ccc2[nH]1,0
8,CSc1nc2cc(C(=O)N3CCN(C)CC3)ccc2[nH]1,0
9,CSc1nc2cc(C(=O)N3CCC(C)CC3)c(Cl)cc2[nH]1,0
10,CSc1nc2cc(C(=O)N3CCCCC3)ccc2[nH]1,0
11,COC(=O)Nc1nc2cc(C(=O)N3CCCCC3)ccc2[nH]1,62
12,CCCSc1ccc2nc(NC(=O)OC)n(C)c2c1,0
13,CCC[S+]([O-])c1ccc2[nH]c(NC(=O)OC)nc2c1 (stereo not given) [ALBENDAZOLE OXIDE],88
